The source of these data is patent EP3254699B1, “SOLID DISPERSION CONTAINING DUTASTERIDE, AND COMPOSITION CONTAINING SAME” (Whanin Pharmaceutical. Co., Ltd., priority 2015, dated 2016).

Read-outs that look alike come from different tables or passages of the source.

A short description of data set [1]: Solubility of dutasteride: powder suspended in water at the supersaturation concentration of 1 mg/ml, 0.45 um filtering, HPLC. It is filed as physicochemical. The conditions noted are these: raw material of dutasteride itself, compared in Experimental Example 4. How it is done:
Alpha-cyclodextrin, beta-cyclodextrin, gamma-cyclodextrin and hydroxypropyl-beta-cyclodextrin were dissolved in water, respectively, and dutasteride was dissolved in the same amount of ethanol. Then, the two liquids were mixed to form an inclusion complex. In this case, the weight ratio of dutasteride and cyclodextrin was 1:100. The inclusion complex of cyclodextrin and dutasteride in the form of powder was obtained from the mixture solution of ethanol and distilled water through a drying process, followed by suspension in water at the supersaturation concentration of 1 mg/ml. The solubility was measured with HPLC after 0.45 um filtering. The analysis conditions and the result of solubility are as shown below.
• Column: Zobrax SB-Phenyl (150 mm x 3.0 mm, 3.5 um) or a column equivalent thereto • Mobile phase: Mixture liquid of acetonitrile and purified water (55:45, v/v) • Wavelength of detection: UV, 240 nm • Amount of injection: 50 uL • Flow rate: 0.5 mL/min
Gamma-cyclodextrin was dissolved in water, and dutasteride, polyvinyl pyrrolidone and gelucire (macrogol glyceride) were dissolved in the same amount of ethanol. Then, the experiment was performed as in Experimental Example 1 to evaluate the solubility of dutasteride.

For data set [2] the following is noted: cited from earlier work.

In the case of `C[C@]12C=CC(=O)N[C@@H]1CC[C@@H]1[C@@H]2CC[C@]2(C)[C@@H](C(=O)Nc3cc(C(F)(F)F)ccc3C(F)(F)F)CC[C@@H]12` [dutasteride], the Solubility of dutasteride result in data set [1] is listed as “not detected”; in data set [2] (in ethanol), 44 mg/mL; in data set [2] (in methanol), 64 mg/mL; in data set [2] (in polyethylene glycol 400), 3 mg/mL; in data set [2] (in water) it was “poorly soluble”.
